Source: paper PMC12892976, “Alkylation-based optimization of antifungal FPPS inhibitors yields a potent, broad-spectrum lipophilic zoledronate derivative” (mBio, 2025)
Like-named read-outs stand apart in the source and are kept apart here.

Key:
Saccharomyces cerevisiae [1] = assay: checkerboard drug interaction (FICI, MICc); assay type: cell-based; design: INH MICc / INH MICc (ITR:INH) / INH MICc (KET:INH) / INH MICc (FLC:INH): unit not given beside the values;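 also: simplified diagonal checkerboard screen pairing antifungals with FPPS inhibitors, FICI calculated under the Loewe additivity model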
Saccharomyces cerevisiae [2] = assay: MIC/MFC broth microdilution (CLSI); assay type: cell-based; conditions: Saccharomyces cerevisiae S288c
Method: (§1) Antifungal susceptibility was determined by broth microdilution according to the CLSI guidelines described in M27-Ed4 ([16]). […] MFC was determined by back-plating drug-treated cultures from MIC broths onto SDA plates. The MFC was defined as the lowest concentration from which no colonies could be cultured.

Aspergillus flavus [3] = assay: MIC/MFC broth microdilution (CLSI); conditions: ATCC204304
Method: as §1

eight fungal species [4] = assay: MIC/MFC summary across the eight fungal species of Table 1; assay type: cell-based
Method: The antifungal activity of these compounds was evaluated according to CLSI guidelines ([16]).

Cryptococcus neoformans [5] = assay: MIC/MFC broth microdilution (CLSI); conditions: Cryptococcus neoformans;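 also: susceptibility testing followed the CLSI M27-Ed4 broth microdilution document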
Method: as §1

Candida glabrata [6] = assay: MIC/MFC broth microdilution (CLSI); conditions: Nakaseomyces glabratus, CBS138;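 also: broth microdilution following CLSI M27-Ed4, MFC taken as the lowest drug level yielding no growth once MIC wells were subcultured on SDA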
Method: as §1

Aspergillus fumigatus [7] = assay: checkerboard drug interaction (FICI, MICc); assay type: cell-based;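 also: simplified diagonal checkerboard screen pairing antifungals with FPPS inhibitors against Aspergillus fumigatus, with FICI calculated under the Loewe additivity model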
Method: (§2) Drug interactions between antifungals and FPPS inhibitors were investigated using a simplified checkerboard diagonal screening method ([45]). […] FICIs were determined according to the Loewe additivity model ([17]).

Trichophyton rubrum [8] = assay: checkerboard drug interaction (FICI, MICc);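 also: simplified diagonal checkerboard screen pairing azole antifungals with FPPS inhibitors, FICI calculated under the Loewe additivity model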; assay type: cell-based; conditions: T. rubrum
Method: as §2

HEK-293T cells = assay: MTT reduction cytotoxicity assay; assay type: cell-based; conditions: Homo sapiens, HEK-293T, 72 h, HEK-293T, MTT, 72 h; read-out: HEK IC50
Trichophyton rubrum [9] = assay: MIC/MFC broth microdilution (CLSI); conditions: Trichophyton rubrum
Method: as §1

Cryptococcus neoformans [10] = assay: checkerboard drug interaction (FICI, MICc);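 as to all read-outs here: antifungal plus FPPS inhibitor pairs tested against Cryptococcus neoformans by simplified diagonal checkerboard screening, FICI computed under the Loewe additivity model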; assay type: cell-based; conditions: C. neoformans; for INH FD (MIC-MICc fold decrease): fold decrease of inhibitor MIC
Method: as §2

Aspergillus flavus [11] = assay: checkerboard drug interaction (FICI, MICc);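 also: simplified diagonal checkerboard screen pairing azole antifungals with FPPS inhibitors, FICI calculated under the Loewe additivity model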; assay type: cell-based; design: INH MICc (KET:INH) / INH MICc (FLC:INH): unit not given beside the values; conditions: A. flavus
eight fungal species [12] = assay: checkerboard interaction with azoles, summary across the eight species; assay type: cell-based; conditions: geometric mean MIC in combination with azoles
Excerpt: Synergy between lipophilic FPPS inhibitors and azole antifungals was investigated by determining the fractional inhibitory concentration index (FICI) (Fig. 2; Table S1 Fig. S1) ([17]). […]. Derivatives PLA9 and 11, and PDA9, 11, and 12 antagonized azoles in C. albicans, C. neoformans, and C. deuterogattii, yet were largely synergistic in C. glabrata and S. cerevisiae. […].

[13] = system: Cryptococcus deuterogattii; assay: checkerboard drug interaction (FICI, MICc);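 as to all read-outs here: simplified diagonal checkerboard screen pairing antifungal drugs with FPPS inhibitors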; assay type: cell-based; conditions: C. deuterogattii; for INH FD (MIC-MICc fold decrease): fold decrease of inhibitor MIC
Method: as §2

[14] = system: Cryptococcus deuterogattii; assay: MIC/MFC broth microdilution (CLSI); conditions: Cryptococcus deuterogattii;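 also: broth microdilution per CLSI M27-Ed4. MFC is the lowest concentration yielding no colonies when MIC broths are subcultured onto SDA plates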
Method: as §1

Candida albicans [15] = assay: MIC/MFC broth microdilution (CLSI); assay type: cell-based; conditions: Candida albicans SC5314
Method: as §1

Candida albicans [16] = assay: checkerboard drug interaction (FICI, MICc);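 as to all read-outs here: antifungal plus FPPS inhibitor combinations on Candida albicans tested by a simplified diagonal checkerboard screen, with FICI calculated under the Loewe additivity model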; assay type: cell-based; conditions: C. albicans; for INH FD (MIC-MICc fold decrease): fold decrease of inhibitor MIC
Method: as §2

Aspergillus fumigatus [17] = assay: MIC/MFC broth microdilution (CLSI); conditions: ATCC204305
Method: as §1

Candida glabrata [18] = assay: checkerboard drug interaction (FICI, MICc);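 as to all read-outs here: simplified diagonal checkerboard screen pairing antifungals with FPPS inhibitors, FICI calculated under the Loewe additivity model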; assay type: cell-based; conditions: C. glabrata; for INH FD (MIC-MICc fold decrease): fold decrease of inhibitor MIC
Method: as §2

[19] = Fractional Inhibitory Concentration Index, fluconazole + inhibitor
[20] = Fractional Inhibitory Concentration Index, itraconazole + inhibitor
[21] = Fractional Inhibitory Concentration Index, ketoconazole + inhibitor
[22] = MIC of the inhibitor in combination with fluconazole
[23] = MIC of the inhibitor in combination with itraconazole
[24] = MIC of the inhibitor in combination with ketoconazole
[25] = MIC-MICc fold decrease of fluconazole, negative = increase
[26] = MIC-MICc fold decrease of itraconazole, negative = increase
[27] = MIC-MICc fold decrease of ketoconazole, negative = increase
[28] = MIC-MICc fold decrease of the inhibitor, with fluconazole
[29] = MIC-MICc fold decrease of the inhibitor, with itraconazole
[30] = MIC-MICc fold decrease of the inhibitor, with ketoconazole
[31] = FLC:INH combination, MIC of the inhibitor in combination with FLC
[32] = FLC:INH combination, fold decrease of FLC MIC
[33] = ITR:INH combination, MIC of the inhibitor in combination with ITR
[34] = ITR:INH combination, fold decrease of ITR MIC
[35] = KET:INH combination, MIC of the inhibitor in combination with KET
[36] = KET:INH combination, fold decrease of KET MIC

CCCCCCCCCN1CCC[C@H]1C(=O)N[C@H](CC(=O)O)C(=O)O [PDA9]
FICI (FLC:INH) (Saccharomyces cerevisiae [1]; [19]): 0.75
FICI (ITR:INH) (Saccharomyces cerevisiae [1]; [20]): 2.06
FICI (KET:INH) (Saccharomyces cerevisiae [1]; [21]): 0.5
INH MICc (FLC:INH) (Saccharomyces cerevisiae [1]; [22]): 64
INH MICc (ITR:INH) (Saccharomyces cerevisiae [1]; [23]): 16
INH MICc (KET:INH) (Saccharomyces cerevisiae [1]; [24]): 64
FLC FD (FLC:INH) (Saccharomyces cerevisiae [1]; [25]): 2
ITR FD (ITR:INH) (Saccharomyces cerevisiae [1]; [26]): -2
KET FD (KET:INH) (Saccharomyces cerevisiae [1]; [27]): 4
INH FD (FLC:INH) (Saccharomyces cerevisiae [1]; [28]): 4
INH FD (ITR:INH) (Saccharomyces cerevisiae [1]; [29]): 16
INH FD (KET:INH) (Saccharomyces cerevisiae [1]; [30]): 4
MFC (Saccharomyces cerevisiae [2]): > 128 µg/mL
MIC (Saccharomyces cerevisiae [2]): > 128 µg/mL
MFC (Aspergillus flavus [3]): > 128 µg/mL
MIC (Aspergillus flavus [3]): > 128 µg/mL
MFC (eight fungal species [4]; across eight species, read-out: Geometric mean MFC): > 128 µg/mL
MIC (eight fungal species [4]; geometric mean across eight species, read-out: GM fungal MIC): > 128 µg/mL
MIC (eight fungal species [4]; read-out: Geometric mean MIC): > 128 µg/mL
MFC (Cryptococcus neoformans [5]): > 128 µg/mL
MIC (Cryptococcus neoformans [5]): > 128 µg/mL
MFC (Candida glabrata [6]): > 128 µg/mL
MIC (Candida glabrata [6]): > 128 µg/mL
FICI (FLC:INH) (Aspergillus fumigatus [7]; [19]): 2
FICI (ITR:INH) (Aspergillus fumigatus [7]; [20]): 0.25
FICI (KET:INH) (Aspergillus fumigatus [7]; [21]): 1.5
INH MICc (FLC:INH) (Aspergillus fumigatus [7]; [22]): 256
INH MICc (ITR:INH) (Aspergillus fumigatus [7]; [23]): 1
INH MICc (KET:INH) (Aspergillus fumigatus [7]; [24]): 128
FLC FD (FLC:INH) (Aspergillus fumigatus [7]; [25]): 1
ITR FD (ITR:INH) (Aspergillus fumigatus [7]; [26]): 4
KET FD (KET:INH) (Aspergillus fumigatus [7]; [27]): 1
INH FD (FLC:INH) (Aspergillus fumigatus [7]; [28]): 1
INH FD (ITR:INH) (Aspergillus fumigatus [7]; [29]): 256
INH FD (KET:INH) (Aspergillus fumigatus [7]; [30]): 2
FICI (FLC:INH) (Trichophyton rubrum [8]; [19]): 3
FICI (ITR:INH) (Trichophyton rubrum [8]; [20]): 2
FICI (KET:INH) (Trichophyton rubrum [8]; [21]): 0.75
INH MICc (FLC:INH) (Trichophyton rubrum [8]; [22]): 256
INH MICc (ITR:INH) (Trichophyton rubrum [8]; [23]): 256
INH MICc (KET:INH) (Trichophyton rubrum [8]; [24]): 64
FLC FD (FLC:INH) (Trichophyton rubrum [8]; [25]): -2
ITR FD (ITR:INH) (Trichophyton rubrum [8]; [26]): 1
KET FD (KET:INH) (Trichophyton rubrum [8]; [27]): 2
INH FD (FLC:INH) (Trichophyton rubrum [8]; [28]): 1
INH FD (ITR:INH) (Trichophyton rubrum [8]; [29]): 1
INH FD (KET:INH) (Trichophyton rubrum [8]; [30]): 4
IC50 (HEK-293T cells): > 256 µg/mL
MFC (Trichophyton rubrum [9]): > 128 µg/mL
MIC (Trichophyton rubrum [9]): > 128 µg/mL
FICI (Cryptococcus neoformans [10]; FLC:INH combination): ≥4
INH MICc (Cryptococcus neoformans [10]; [31]): 256
FLC FD (MIC-MICc fold decrease) (Cryptococcus neoformans [10]; [32]): < -4
INH FD (MIC-MICc fold decrease) (Cryptococcus neoformans [10]; FLC:INH combination): 1
FICI (Cryptococcus neoformans [10]; ITR:INH combination): ≥4
INH MICc (Cryptococcus neoformans [10]; [33]): 128
ITR FD (MIC-MICc fold decrease) (Cryptococcus neoformans [10]; [34]): -4
INH FD (MIC-MICc fold decrease) (Cryptococcus neoformans [10]; ITR:INH combination): 2
FICI (Cryptococcus neoformans [10]; KET:INH combination): ≥4
INH MICc (Cryptococcus neoformans [10]; [35]): 128
KET FD (MIC-MICc fold decrease) (Cryptococcus neoformans [10]; [36]): -4
INH FD (MIC-MICc fold decrease) (Cryptococcus neoformans [10]; KET:INH combination): 2
FICI (FLC:INH) (Aspergillus flavus [11]; [19]): 1
FICI (ITR:INH) (Aspergillus flavus [11]; [20]): 1.02
FICI (KET:INH) (Aspergillus flavus [11]; [21]): 1
INH MICc (FLC:INH) (Aspergillus flavus [11]; [22]): 128
INH MICc (ITR:INH) (Aspergillus flavus [11]; [23]): 4
INH MICc (KET:INH) (Aspergillus flavus [11]; [24]): 128
FLC FD (FLC:INH) (Aspergillus flavus [11]; [25]): 2
ITR FD (ITR:INH) (Aspergillus flavus [11]; [26]): 1
KET FD (KET:INH) (Aspergillus flavus [11]; [27]): 2
INH FD (FLC:INH) (Aspergillus flavus [11]; [28]): 2
INH FD (ITR:INH) (Aspergillus flavus [11]; [29]): 64
INH FD (KET:INH) (Aspergillus flavus [11]; [30]): 2
GM fungal MICc (eight fungal species [12]): 52.3
FICI ([13]; FLC:INH combination): ≥4
INH MICc [13, 31]: 256
FLC FD (MIC-MICc fold decrease) [13, 32]: -4
INH FD (MIC-MICc fold decrease) ([13]; FLC:INH combination): 1
FICI ([13]; ITR:INH combination): ≥4
INH MICc [13, 33]: 256
ITR FD (MIC-MICc fold decrease) [13, 34]: < -4
INH FD (MIC-MICc fold decrease) ([13]; ITR:INH combination): 1
FICI ([13]; KET:INH combination): 2
INH MICc [13, 35]: 256
KET FD (MIC-MICc fold decrease) [13, 36]: 1
INH FD (MIC-MICc fold decrease) ([13]; KET:INH combination): 1
MFC [14]: > 128 µg/mL
MIC [14]: > 128 µg/mL
MFC (Candida albicans [15]): > 128 µg/mL
MIC (Candida albicans [15]): > 128 µg/mL
FICI (Candida albicans [16]; FLC:INH combination): ≥4
INH MICc (Candida albicans [16]; [31]): 64
FLC FD (MIC-MICc fold decrease) (Candida albicans [16]; [32]): < -4
INH FD (MIC-MICc fold decrease) (Candida albicans [16]; FLC:INH combination): 4
FICI (Candida albicans [16]; ITR:INH combination): ≥4
INH MICc (Candida albicans [16]; [33]): 64
ITR FD (MIC-MICc fold decrease) (Candida albicans [16]; [34]): < -4
INH FD (MIC-MICc fold decrease) (Candida albicans [16]; ITR:INH combination): 4
FICI (Candida albicans [16]; KET:INH combination): ≥4
INH MICc (Candida albicans [16]; [35]): 64
KET FD (MIC-MICc fold decrease) (Candida albicans [16]; [36]): < -4
INH FD (MIC-MICc fold decrease) (Candida albicans [16]; KET:INH combination): 4
MFC (Aspergillus fumigatus [17]): > 128 µg/mL
MIC (Aspergillus fumigatus [17]): > 128 µg/mL
FICI (Candida glabrata [18]; FLC:INH combination): 0.31
INH MICc (Candida glabrata [18]; [31]): 4
FLC FD (MIC-MICc fold decrease) (Candida glabrata [18]; [32]): 4
INH FD (MIC-MICc fold decrease) (Candida glabrata [18]; FLC:INH combination): 64
FICI (Candida glabrata [18]; ITR:INH combination): 0.28
INH MICc (Candida glabrata [18]; [33]): 2
ITR FD (MIC-MICc fold decrease) (Candida glabrata [18]; [34]): 4
INH FD (MIC-MICc fold decrease) (Candida glabrata [18]; ITR:INH combination): 128
FICI (Candida glabrata [18]; KET:INH combination): 0.28
INH MICc (Candida glabrata [18]; [35]): 2
KET FD (MIC-MICc fold decrease) (Candida glabrata [18]; [36]): 4
INH FD (MIC-MICc fold decrease) (Candida glabrata [18]; KET:INH combination): 128
